In patent US8288145B2, “Medium supplement for virus production” (AVIR Green Hills Biotechnology, priority 2006, dated 2012):
Several values for one entry are separate records, joined by “and”; a condition that tells them apart may be missing. Equal entries are not always repeated.

Key:
[1] = test system: A/New Caledonia/20/99 (H1N1); assay type: cell-based, influenza A virus
[2] = test system: A/Vienna/28/2006 (H3N2) (A/Wisconsin/67/2005-like); assay type: cell-based, influenza A virus
[3] = test system: B/Vienna/32/2006 (B/Malaysia/2506/2004-like); assay type: cell-based, influenza B
[4] = test system: A/New Caledonia/20/99 (H1N1)-like ΔNS1 virus; assay type: cell-based, influenza A virus
[5] = test system: A/Wisconsin/67/2005 (H3N2)-like virus; assay type: cell-based, influenza A virus
influenza B virus = assay type: cell-based
[6] = test system: Enzephalomyocarditis virus RNA; settings: Borden E. et al. 1979, 1981; cited from earlier work
SV40 virus DNA = settings: Borden E. et al. 1979, 1981; cited from earlier work

SMILES	less virus obtained when no amphotericin B is added [1]	higher virus titre if grown in the presence of amphotericin B [2]	titre of B virus in the presence of amphotericin B [3]	increase of sensitivity (titre) of TCID50 titration [4]	cytopathic effect of transfectant virus [5]	titre of transfectant virus [5]	clinical samples positive for virus isolation (influenza B virus)	infectivity of viral RNA [6]	infectivity of viral DNA (SV40 virus DNA)
C[C@@H]1[C@H](O)[C@@H](C)/C=C/C=C/C=C/C=C/C=C/C=C/C=C/[C@H](O[C@@H]2O[C@H](C)[C@@H](O)[C@H](N)[C@@H]2O)C[C@@H]2O[C@](O)(C[C@@H](O)C[C@@H](O)[C@H](O)CC[C@@H](O)C[C@@H](O)CC(=O)O[C@H]1C)C[C@H](O)[C@H]2C(=O)O [amphotericin B]	1 log	≥ 1 log	more than 1E+08 pfu/ml	~1 log	clear cytopathic effect	2E+04 TCID50/ml and 2.0E+04 TCID50/ml	9		
COC(=O)[C@H]1[C@@H]2C[C@@H](O[C@@H]3O[C@H](C)[C@@H](O)[C@H](N)[C@@H]3O)/C=C/C=C/C=C/C=C/C=C/C=C/C=C/[C@H](C)[C@@H](O)[C@@H](C)[C@H](C)OC(=O)C[C@H](O)C[C@H](O)CC[C@@H](O)[C@H](O)C[C@H](O)C[C@](O)(C[C@@H]1O)O2 [Amphotericin B methyl ester]								increase the infectivity	increase the infectivity
